Test results reported in patent US20230293630A1, “Coronavirus T Cell Epitopes and Uses Thereof” (priority 2020, published 2023).
Where “and” joins values, the source holds several entries; their conditions need not be identical. Equal entries are not always repeated.

What follows are sequences tested on SARS-CoV-2-specific CD8+ T cells (CD69+CD137+) in PBMC.
Assay type: cell-based, human
For Magnitude of response in this document: unit not given here.
For Sum of response in this document: unit not given here.

Sequence | Frequency of positive response | Magnitude of response | Sum of response
KTFPPTEPKKDKKK | 50 | 122 | 122
YQDVNCTEV | 50 | 243 | 243
AISDYDYYR | 100 | 173 | 173
RLQSLQTY | 33 | 142 | 142
HTTDPSFLGR | 50 | 312 | 312
KAYNVTQAF | 50 and 33 |  | 
VTYVPAQEK | 33 and 25 | 435 and 235 | 435 and 235
EILPVSMTK | 25 and 50 |  | 
AAISDYDYYR | 100 | 290 | 290
SEPVLKGVKL | 40 | 251 | 501
